Results from patent US20170121752A1, “DETECTION OF ACRYLIC ACID” (AGENCY FOR SCIENCE, TECHNOLOGY AND RESEARCH, priority 2014, published 2017).
Entries after “also recorded” stand apart in the source; their conditions may differ.

How the values were obtained:
[1] = system: C. propionicum; experiment: Fluorescence signal of bacterial cell lysates grown with 3-butynoic acid; format: cell-based, Clostridium propionicum; conditions: media with 5 and 10 mM 3-butynoic acid, lysates treated with compound 4
Protocol: The cell lysates were treated with […] of diaryltetrazole compound 4 for fluorescence detection. […] 3-Butynoic acid, an acyl CoA dehydrogenase inhibitor, may be capable of promoting accumulation of acrylyl CoA in cells. In C. propionicum, acrylyl CoA is normally converted to propionyl CoA. However, in the presence of 3-butynoic acid, this reaction is inhibited. […] C. propionicum naturally produces acrylic acid but E. Coli. may not naturally produce acrylic acid.

[2] = Fluorescence assay of the photoactivated reaction between diaryltetrazole and acrylic acid; conditions: for λem,max / λex,max: 100 μM compound reacted with acrylic acid; for λem,max / λex,max / Fold increase in fluorescence 10 mM / Fold increase in fluorescence 100 μM: photoirradiation 1 minute at 302 nm; for Fold increase in fluorescence 10 mM / Fold increase in fluorescence 100 μM: 100 μM compound; for Fold increase in fluorescence 10 mM: 10 mM acrylic acid; for fluorescence increases above the background: reacted with acrylic acid, summary of Table 1; for Fold increase in fluorescence 100 μM / pH of signal detection peak: 100 μM acrylic acid
Protocol: A solution containing the diaryltetrazole (0.022 mmol) and acrylic acid (0.02 to 0.050 mmol) was irradiated with a hand-held 302-nm UV lamp for 1 minute. Experiments were performed in a black 96-well plate with a total reaction volume of 100 The maximum excitation wavelengths indicated in Table 1 were used for each of the scans. The fluorescence emission spectrums of the reaction are shown in FIG. 1a to if using 10 μM of acrylic acid. The spectra for control experiments where either of the reactants was omitted have also been depicted in each of FIGS. 1a to 1f.
As mentioned earlier, the lower limit of detection of acrylic acid for compound 4 was 500 nM of acrylic acid upon a 1 minute photoactivation period with UV light at 302 nm. […]
As described above, compound 4 was used in further experiments to detect acrylic acid. The reaction between compound 4 and acrylic acid was carried out in water with a photoactivation time of 1 minute at 302 nm. Using 100 μM of 4, acrylic acid concentrations from 1 μM to 100 μM were readily detectable with a fluorescence microplate reader (see FIG. 3 and example 9).

[3] = system: C. propionicum cells; experiment: In vivo detection of acrylic acid in C. propionicum cells by fluorescence microscopy and lysate fluorescence; format: cell-based, Clostridium propionicum; conditions: 100 μM compound 4, 30 min, UV 302 nm 1 minute, with or without 100 μM acrylic acid added
Protocol: To test the diaryltetrazole sensor for in vivo production of acrylic acid, we applied compound 4 to C. propionicum cells. C. propionicum cells were grown to late log phase (OD600˜1.0) in an anoxia chamber and treated with 100 μM of compound 4. After incubating at 37° C. for 30 min in the dark, cells were washed, pelleted, suspended in PBS buffer and mounted on a slide. Cells were exposed to 302 nm UV light for 1 minute and imaged under a fluorescence microscope (using DAPI filters) after about 2 hours of recovery at room temperature. Control cells include cells treated with acrylic acid and compound 4 to observe positive fluorescence; untreated cells and cells treated with acrylic acid alone and without UV treatment. […] This indicates the production of acrylic acid intermediates in these cells and the diaryltetrazole probe is capable of detecting them.

[4] = Reaction monitoring of photoactivated cycloaddition using HPLC and fluorescence
Protocol: 10 mM of compound 4 was dissolved in dichloromethane and methanol (1:1). A separate solution of 10 mM of acrylic acid was dissolved in methanol. 10 μL of 10 mM of compound 4 and 10 μL of 10 mM of acrylic acid were then dissolved in 80 μL of methanol. After vigorous stirring, the mixture was irradiated with a 302 nm UV lamp for 0 seconds, 15 seconds, 30 seconds, 45 seconds, 60 seconds, 90 seconds and 120 seconds, respectively. An aliquot (10 μL) of reaction solution from each sample was withdrawn and immediately injected in the HPLC column. Compound 4 (denoted as A) and the pyrazoline product 4P (denoted as B) in each sample was monitored by UV absorbance at 254 nm and 370 nm. A linear gradient of 5 to 90% MeOH was applied after 3 minutes for 10 minutes, which is then kept constant for 10 minutes before a 7 minutes linear declining gradient of 90 to 5% MeOH. Compound 4 and product 4P were eluted at about 13.4 minutes and 12.4 minutes respectively.
The kinetic reaction studies involving diaryltetrazole compound 4 and acrylic acid were carried out by monitoring with HPLC from 0 to 120 seconds as described above.
Fluorescence turn on of the reaction mixture occurred after 15 seconds. The left vial to the right vial are labelled as no UV activation, 15 seconds, 30 seconds, 45 seconds, 60 seconds, 90 seconds, 120 seconds of UV activation, respectively. […]

[5] = Fluorescence assay of the photoactivated reaction between diaryltetrazole and acrylamide
Protocol: To substantiate the above, the reaction between compound 4 and acrylic acid (AA), and the reaction between compound 4 and acrylamide (a derivative), were carried out in buffers from pH 1 to pH 13. […] Deprotonation of the chromophore appears to result in higher fluorescence intensity of the pyrazoline product.
100 μM acrylic acid and 2 different grades of acrylamides, particularly gel electrophoresis acrylamide (GE) and molecular biology acrylamide (MB), were tested with 100 μM of compound 4 over the entire pH range. The reaction between compound 4 and acrylic acid/acrylamide was carried out in a phosphate buffer (having different pH as indicated) in 10% DMSO with a photoactivation time of 1 minute at 302 nm. Fluorescence was measured using a fluorescence microplate reader. […] Clearly, the detection method of the present disclosure is capable of detecting acrylate derivatives.
Compound 4 was also used to detect acrylamide in vitro. The reaction between compound 4 and acrylamide was carried out in phosphate buffer at pH 9.0 with 10% DMSO with a photoactivation time of 1 minute at 302 nm. Using 100 μM of compound 4, acrylamide concentrations from 1 μM to 100 μM were readily detectable with a fluorescence microplate reader as shown in FIG. 18.
10% (v/v) of different oils in a phosphate buffer of pH 9.0 containing 1% Tween-20 were spiked in with 10 mM Acrylamide (gel electrophoresis grade). Controls were uncontaminated. Reactions of these mixtures were set up with 100 μM of compound 4 with a photoactivation time of 1 minute at 302 nm. Fluorescence was measured using a fluorescence microplate reader.
100 μM of acrylic acid and acrylamide (gel electrophoresis grade) were tested with 100 μM of compound 4 over a pH range of 7 to 13. The reaction between compound 4 and acrylic acid/acrylamide was carried out in a phosphate buffer (having different indicated pH) in 10% DMSO with a photoactivation time of 1 minute at 302 nm. Fluorescence was measured using a fluorescence microplate reader.

[6] = system: E. coli cells; experiment: In vivo detection of acrylic acid in E. coli cells by fluorescence microscopy; format: cell-based; conditions: 100 μM acrylic acid 10 minutes, 100 μM compound 4 30 min, UV 302 nm 1 minute
Protocol: The use of compound 4 as an acrylic acid sensor in vivo was tested in this example. E. coli cells were grown to late log phase (OD600˜1.0) and treated with 100 μM acrylic acid for 10 minutes at 37° C. Upon washing, cells were treated with 100 μM of compound 4 and incubated at 37° C. for 30 min in the dark. The cells were washed, pelleted, suspended in 1×PBS and mounted on a slide. They were then exposed to UV light at 302 nm for 1 minute and imaged under a fluorescence microscope (using DAPI filters) after about 2 hours of recovery at room temperature. Control cells include untreated cells; cells treated with either acrylic acid or compound 4 alone and without UV treatment.

Row | λem,max [2] | λex,max [2] | SMILES | Fold increase in fluorescence 10 mM [2] | fluorescence increases above the background [2] | Fold increase in fluorescence 100 μM [2] | other results
1 | – | – | C#CCC(=O)O [3-butynoic acid, 3-Butynoic acid] | – | – | – | fluorescence signal of cell lysates [1]: fluorescence signal is higher
2 | 482 nm | 395 nm | COC(=O)c1ccc(-c2nnn(-c3ccccc3)n2)cc1 [Compound 1] | 3.23 | around 3 fold | – | –
3 | 487 nm | 392 nm | COC(=O)c1ccc(-c2nnn(-c3ccc(F)cc3)n2)cc1 [Compound 2] | 3.38 | around 3 fold | 1.12 | –
4 | 482 nm | 380 nm | COC(=O)c1ccc(-c2nnn(-c3ccc(F)cc3F)n2)cc1 [Compound 3] | 3.17 | around 3 fold | 1.12 | –
5 | – | – | Cc1ccc(-c2nnn(-c3ccc(N)cc3)n2)cc1 [Compound 5] | – | – | – | fluorescence / reactivity towards acrylic acid ([2]; reaction with acrylic acid, photoactivation): No fluorescence; also recorded: unreactive towards acrylic acid, forming little or no fluorescent product
6 | – | 371 nm | COc1ccc(-n2nnc(-c3ccc(C)cc3)n2)cc1 [Compound 6] | 3.87 | around 3 fold | – | –
7 | – | 368 nm | COc1ccc(-n2nnc(-c3ccccc3)n2)cc1 [Compound 7] | 3.38 | around 3 fold | 1.43 | –

Row | SMILES | λem,max [2] | λex,max [2] | Fold increase in fluorescence 10 mM [2] | fluorescence increases above the background [2] | Fold increase in fluorescence 100 μM [2] | other results
8 | O=C(O)c1ccc(-c2nnn(-c3ccccc3)n2)cc1 [Compound 4] | 520 nm | 380 nm | 5.15 | – | 132 | fluorescence of cells [3]: cells were fluorescent; pH of signal detection peak ([2]; 100 μM compound 4, entire pH range, phosphate buffer 10% DMSO (FIG. 17)): 11.0 pH; pH of signal detection peak ([2]; 100 μM compound 4, pH range 7 to 13 (FIG. 21)): 10.0 pH; fluorescence detection of acrylic acid in LB media and minimum media ([2]; 100 μM compound 4, 1 min photoactivation): readily detected before the completion of photoactivation; lower limit of detection of acrylic acid ([2]; 1 minute photoactivation with UV light at 302 nm): 500 nM; Fold increase in fluorescence ([2]; Table 2: 100 μM compound 4, 500 nM acrylic acid): 1.12; Fold increase in fluorescence ([2]; Table 2: 100 μM compound 4, 1 μM acrylic acid): 1.58; Fold increase in fluorescence ([2]; Table 2: 100 μM compound 4, 10 μM acrylic acid): 17; Fold increase in fluorescence ([2]; Table 2: 100 μM compound 4, 100 μM acrylic acid): 132; fluorescence of the probe alone (control experiments) ([2]; buffers pH 1 to pH 13, without analyte): not fluorescent at all pH tested; time to completion of the reaction with acrylic acid ([4]; HPLC monitoring, 302 nm UV, methanol): ≤ 90 s; time to fluorescence turn on of the reaction mixture ([4]; compound 4 and acrylic acid in methanol, UV activation): ≤ 15 s; pH of fluorescent peak ([5]; 100 μM acrylamide (gel electrophoresis grade), 100 μM compound 4, pH range 7 to 13 (FIG. 21)): 9.0 pH; pH of signal detection peak ([5]; 100 μM acrylamide, 100 μM compound 4, entire pH range, phosphate buffer 10% DMSO (FIG. 17)): 9.0 pH; detection of acrylamide in a complex organic/detergent mixture ([5]; 10% (v/v) oils, phosphate buffer pH 9.0, 1% Tween-20, 10 mM acrylamide, 100 μM compound 4): able to detect acrylamide in a complex organic/detergent mixture; fluorescence of bacterial cells [6]: only fluorescent in the presence of both acrylic acid and compound 4
